Test results taken from ChEMBL document CHEMBL1140477 (Bioorg Med Chem, 2007).

Target: T1, 3-hydroxy-3-methylglutaryl-coenzyme A reductase (Rattus norvegicus, UniProt P51639)
T1 sequence (P51639 whole entry): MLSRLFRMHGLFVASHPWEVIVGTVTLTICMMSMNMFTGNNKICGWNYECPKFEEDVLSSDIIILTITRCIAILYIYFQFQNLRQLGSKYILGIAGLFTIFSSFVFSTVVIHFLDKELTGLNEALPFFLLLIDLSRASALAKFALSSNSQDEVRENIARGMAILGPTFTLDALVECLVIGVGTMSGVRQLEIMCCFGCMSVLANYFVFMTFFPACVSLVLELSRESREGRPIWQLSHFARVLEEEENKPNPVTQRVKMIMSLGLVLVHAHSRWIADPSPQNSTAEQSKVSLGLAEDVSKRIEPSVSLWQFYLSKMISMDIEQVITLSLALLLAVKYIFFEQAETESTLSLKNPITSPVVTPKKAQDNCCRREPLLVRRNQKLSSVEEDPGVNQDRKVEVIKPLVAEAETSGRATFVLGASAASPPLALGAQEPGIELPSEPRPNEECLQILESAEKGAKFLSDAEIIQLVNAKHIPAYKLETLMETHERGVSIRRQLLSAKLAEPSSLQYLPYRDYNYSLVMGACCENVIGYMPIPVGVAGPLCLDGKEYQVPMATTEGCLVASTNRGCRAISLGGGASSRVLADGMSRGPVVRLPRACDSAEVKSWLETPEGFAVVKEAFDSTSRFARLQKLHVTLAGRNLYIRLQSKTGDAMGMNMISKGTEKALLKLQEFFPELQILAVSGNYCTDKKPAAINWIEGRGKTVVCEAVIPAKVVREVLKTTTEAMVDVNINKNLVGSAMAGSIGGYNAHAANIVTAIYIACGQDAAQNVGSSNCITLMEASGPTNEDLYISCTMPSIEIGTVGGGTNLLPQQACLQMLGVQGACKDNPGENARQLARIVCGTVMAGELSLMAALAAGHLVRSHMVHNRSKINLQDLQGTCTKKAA
Test: Inhibition of Holtzman-Sprague-Dawley rat liver HMG CoA reductase after 30 mins

SMILES | IC50
CC(C)c1ccc(Sc2cc3c(Sc4ccc(C(C)C)cc4)c(/C=C/[C@@H]4C[C@@H](O)CC(=O)O4)cnc3c(Sc3ccc(C(C)C)cc3)c2Sc2ccc(C(C)C)cc2)cc1 | 4.35 µM
O=C1C[C@H](O)C[C@@H](/C=C/c2cnc3cc(Sc4ccccc4)c(Sc4ccccc4)cc3c2Sc2ccccc2)O1 | 32.5 µM
O=C1C[C@H](O)C[C@@H](/C=C/c2cnc3c(F)c(F)c(F)cc3c2Sc2ccccc2)O1 | 10.7 µM
O=C1C[C@H](O)C[C@@H](/C=C/c2cnc3ccccc3c2Sc2ccc(F)cc2)O1 | 18.6 µM
COc1cccc(Sc2cc3ncc(/C=C/[C@@H]4C[C@@H](O)CC(=O)O4)c(Sc4cccc(OC)c4)c3cc2Sc2cccc(OC)c2)c1 | 15.4 µM
O=C(O)C[C@H](O)C[C@H](O)/C=C/c1c(C2CC2)nc2ccccc2c1-c1ccc(F)cc1 [PITAVASTATIN CALCIUM] | 10.6 µM
COc1cccc(Sc2c(F)cc3c(Sc4cccc(OC)c4)c(/C=C/[C@@H]4C[C@@H](O)CC(=O)O4)cnc3c2Sc2cccc(OC)c2)c1 | 74.6 µM
CC(C)c1ccc(Sc2c(/C=C/[C@@H]3C[C@@H](O)CC(=O)O3)cnc3ccccc23)cc1 | 12.7 µM
CC(C)c1ccc(Sc2cc3ncc(/C=C/[C@@H]4C[C@@H](O)CC(=O)O4)c(Sc4ccc(C(C)C)cc4)c3cc2Sc2ccc(C(C)C)cc2)cc1 | 14.2 µM
CC(C)c1ccc(Sc2ccc3c(Sc4ccc(C(C)C)cc4)c(/C=C/[C@@H]4C[C@@H](O)CC(=O)O4)cnc3c2)cc1 | 15.8 µM
CC(C)c1ccc(Sc2c(/C=C/[C@@H]3C[C@@H](O)CC(=O)O3)cnc3cc(Cl)c(F)cc23)cc1 | 22.1 µM
COc1cccc(Sc2c(F)cc3c(Sc4cccc(OC)c4)c(/C=C/[C@@H]4C[C@@H](O)CC(=O)O4)cnc3c2F)c1 | 49.7 µM
O=C1C[C@H](O)C[C@@H](/C=C/c2cnc3cc(Sc4ccc(F)cc4)c(F)cc3c2Sc2ccc(F)cc2)O1 | 38.9 µM
O=C1C[C@H](O)C[C@@H](/C=C/c2cnc3cc(Sc4ccccc4)c(F)cc3c2Sc2ccccc2)O1 | 4.41 µM
